We go through 7 cell lines from the supplement of paper PMC10307832.

Common to all, as to experiment: relative viability (nuclei count vs DMSO), 5 days (fraction); higher = more cells survive
Compound in the assay “Ispinesib + Navitoclax”: Cc1ccc(C(=O)N(CCCN)[C@@H](c2nc3cc(Cl)ccc3c(=O)n2Cc2ccccc2)C(C)C)cc1 [Ispinesib] + CC1(C)CCC(c2ccc(Cl)cc2)=C(CN2CCN(c3ccc(C(=O)NS(=O)(=O)c4ccc(N[C@H](CCN5CCOCC5)CSc5ccccc5)c(S(=O)(=O)C(F)(F)F)c4)cc3)CC2)C1 [Navitoclax] (partner 0.5 µM)
Summed up:
(§1)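 Relative viability was taken as the ratio of nuclei in treated wells to nuclei in vehicle wells. Lung cancer cell lines in 1536-well plates received compounds by pin tool one day after seeding, either one drug alone or a fixed anchor-drug dose plus five library-drug doses (not always all listed) in √10 steps. Nuclei were counted on 4× images after 5 days of treatment, and values are medians of duplicate plates.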

Compound in the assay “Linsitinib + Pictilisib”: C[C@]1(O)C[C@@H](c2nc(-c3ccc4ccc(-c5ccccc5)nc4c3)c3c(N)nccn32)C1 [Linsitinib] + CS(=O)(=O)N1CCN(Cc2cc3nc(-c4cccc5[nH]ncc45)nc(N4CCOCC4)c3s2)CC1 [Pictilisib] (partner 1 µM)
The method, boiled down:
as §1

Compound in the assay “Ispinesib + AZD7762”: Cc1ccc(C(=O)N(CCCN)[C@@H](c2nc3cc(Cl)ccc3c(=O)n2Cc2ccccc2)C(C)C)cc1 [Ispinesib] + NC(=O)Nc1cc(-c2cccc(F)c2)sc1C(=O)N[C@H]1CCCNC1 [AZD7762] (partner 0.2 µM)
Summed up:
as §1

Compound in the assay “Ispinesib + Pemetrexed”: Cc1ccc(C(=O)N(CCCN)[C@@H](c2nc3cc(Cl)ccc3c(=O)n2Cc2ccccc2)C(C)C)cc1 [Ispinesib] + Nc1nc2[nH]cc(CCc3ccc(C(=O)N[C@@H](CCC(=O)O)C(=O)O)cc3)c2c(=O)[nH]1 [Pemetrexed] (partner 0.2 µM)
The method, boiled down: as §1

In the case of NCI-H2170, the relative viability came out at 0.617 with Ispinesib + Navitoclax (first compound 0.001 µM); 0.61 with Ispinesib + Navitoclax (first compound 0.003162 µM); 0.624 with Ispinesib + Navitoclax (first compound 0.01 µM); 0.324 with Ispinesib + Navitoclax (first compound 0.03162 µM); 0.258 with Ispinesib + Navitoclax (first compound 0.1 µM); 0.336 in the assay with Linsitinib + Pictilisib (first compound 0.01 µM). The relative viability in the assay with Linsitinib + Pictilisib (first compound 0.03162 µM) is 0.317; with Linsitinib + Pictilisib (first compound 0.1 µM) it was 0.308; with Linsitinib + Pictilisib (first compound 0.3162 µM) it was 0.26; with Linsitinib + Pictilisib (first compound 1 µM), 0.23; in the assay with Ispinesib + AZD7762 (first compound 0.001 µM) it was 0.897; with Ispinesib + AZD7762 (first compound 0.003162 µM), 0.88. Further, the relative viability in the assay with Ispinesib + AZD7762 (first compound 0.01 µM) was 0.909; with Ispinesib + AZD7762 (first compound 0.03162 µM) it was 0.225; with Ispinesib + AZD7762 (first compound 0.1 µM) it was 0.17; in the assay with Ispinesib + Pemetrexed (first compound 0.001 µM), 0.357; with Ispinesib + Pemetrexed (first compound 0.003162 µM), 0.266; in the assay with Ispinesib + Pemetrexed (first compound 0.01 µM), 0.256. The relative viability with Ispinesib + Pemetrexed (first compound 0.03162 µM) was 0.205; in the assay with Ispinesib + Pemetrexed (first compound 0.1 µM), 0.158.
For NCI-H2347, the relative viability in the assay with Ispinesib + Navitoclax (first compound 0.001 µM) was 0.819; with Ispinesib + Navitoclax (first compound 0.003162 µM), 0.727; in the assay with Ispinesib + Navitoclax (first compound 0.01 µM), 0.967; with Ispinesib + Navitoclax (first compound 0.03162 µM) it was 0.762; with Ispinesib + Navitoclax (first compound 0.1 µM) it was 0.609; with Linsitinib + Pictilisib (first compound 0.01 µM), 0.802. Besides, the relative viability in the assay with Linsitinib + Pictilisib (first compound 0.03162 µM) was determined as 0.609; in the assay with Linsitinib + Pictilisib (first compound 0.1 µM), 0.597; with Linsitinib + Pictilisib (first compound 0.3162 µM), 0.695; with Linsitinib + Pictilisib (first compound 1 µM), 0.717; in the assay with Ispinesib + AZD7762 (first compound 0.001 µM) it was 0.558; with Ispinesib + AZD7762 (first compound 0.003162 µM) it was 0.856. The relative viability came out at 0.745 with Ispinesib + AZD7762 (first compound 0.01 µM); 0.701 with Ispinesib + AZD7762 (first compound 0.03162 µM); 0.636 with Ispinesib + AZD7762 (first compound 0.1 µM); 0.47 with Ispinesib + Pemetrexed (first compound 0.001 µM); 0.432 in the assay with Ispinesib + Pemetrexed (first compound 0.003162 µM); 0.433 in the assay with Ispinesib + Pemetrexed (first compound 0.01 µM). For the same cell line, the figures for the relative viability in the assay with Ispinesib + Pemetrexed (first compound 0.03162 µM) and in the assay with Ispinesib + Pemetrexed (first compound 0.1 µM) were 0.41 and 0.425, respectively.
As to NCI-H2405, the relative viability was determined as 0.884 with Ispinesib + Navitoclax (first compound 0.001 µM); 0.72 with Ispinesib + Navitoclax (first compound 0.003162 µM); 0.942 with Ispinesib + Navitoclax (first compound 0.01 µM); 0.779 with Ispinesib + Navitoclax (first compound 0.03162 µM); 0.276 in the assay with Ispinesib + Navitoclax (first compound 0.1 µM); 0.428 with Linsitinib + Pictilisib (first compound 0.01 µM). In addition, the relative viability in the assay with Linsitinib + Pictilisib (first compound 0.03162 µM) came out at 0.329; with Linsitinib + Pictilisib (first compound 0.1 µM), 0.43; with Linsitinib + Pictilisib (first compound 0.3162 µM), 0.69; with Linsitinib + Pictilisib (first compound 1 µM), 0.332; in the assay with Ispinesib + AZD7762 (first compound 0.001 µM), 0.867; with Ispinesib + AZD7762 (first compound 0.003162 µM), 0.791. The relative viability was 0.73 in the assay with Ispinesib + AZD7762 (first compound 0.01 µM); 0.711 with Ispinesib + AZD7762 (first compound 0.03162 µM); 0.363 with Ispinesib + AZD7762 (first compound 0.1 µM); 1.1 with Ispinesib + Pemetrexed (first compound 0.001 µM); 1.06 in the assay with Ispinesib + Pemetrexed (first compound 0.003162 µM); 0.9 in the assay with Ispinesib + Pemetrexed (first compound 0.01 µM). Also, the relative viability with Ispinesib + Pemetrexed (first compound 0.03162 µM) was 0.934; with Ispinesib + Pemetrexed (first compound 0.1 µM) it was 0.423.
For the cell line NCI-H3122, the relative viability worked out at 1.1 with Ispinesib + Navitoclax (first compound 0.001 µM); 1.06 in the assay with Ispinesib + Navitoclax (first compound 0.003162 µM); 1.06 in the assay with Ispinesib + Navitoclax (first compound 0.01 µM); 1.07 in the assay with Ispinesib + Navitoclax (first compound 0.03162 µM); 0.199 with Ispinesib + Navitoclax (first compound 0.1 µM); 0.601 with Linsitinib + Pictilisib (first compound 0.01 µM). Besides, the relative viability with Linsitinib + Pictilisib (first compound 0.03162 µM) is 0.58; in the assay with Linsitinib + Pictilisib (first compound 0.1 µM), 0.572; with Linsitinib + Pictilisib (first compound 0.3162 µM), 0.499; with Linsitinib + Pictilisib (first compound 1 µM), 0.399; with Ispinesib + AZD7762 (first compound 0.001 µM) it was 0.996; in the assay with Ispinesib + AZD7762 (first compound 0.003162 µM) it was 0.982. Further, the relative viability with Ispinesib + AZD7762 (first compound 0.01 µM) was found to be 1.15; in the assay with Ispinesib + AZD7762 (first compound 0.03162 µM), 0.835; with Ispinesib + AZD7762 (first compound 0.1 µM), 0.141; with Ispinesib + Pemetrexed (first compound 0.001 µM), 0.196; with Ispinesib + Pemetrexed (first compound 0.003162 µM), 0.221; with Ispinesib + Pemetrexed (first compound 0.01 µM), 0.198. For the same cell line, the relative viability with Ispinesib + Pemetrexed (first compound 0.03162 µM) stood at 0.217; with Ispinesib + Pemetrexed (first compound 0.1 µM), 0.107.
On to PC-3 [JPC-3], for which the relative viability was 0.826 in the assay with Ispinesib + Navitoclax (first compound 0.001 µM); 0.875 in the assay with Ispinesib + Navitoclax (first compound 0.003162 µM); 0.782 with Ispinesib + Navitoclax (first compound 0.01 µM); 0.797 with Ispinesib + Navitoclax (first compound 0.03162 µM); 0.784 with Ispinesib + Navitoclax (first compound 0.1 µM); 0.804 with Linsitinib + Pictilisib (first compound 0.01 µM). The relative viability with Linsitinib + Pictilisib (first compound 0.03162 µM) came to 0.777; with Linsitinib + Pictilisib (first compound 0.1 µM), 0.665; with Linsitinib + Pictilisib (first compound 0.3162 µM) it was 0.517; in the assay with Linsitinib + Pictilisib (first compound 1 µM), 0.52; with Ispinesib + AZD7762 (first compound 0.001 µM) it was 0.937; in the assay with Ispinesib + AZD7762 (first compound 0.003162 µM), 0.9. For the same cell line, the relative viability with Ispinesib + AZD7762 (first compound 0.01 µM) came out at 0.798; in the assay with Ispinesib + AZD7762 (first compound 0.03162 µM), 0.542; in the assay with Ispinesib + AZD7762 (first compound 0.1 µM), 0.368; with Ispinesib + Pemetrexed (first compound 0.001 µM) it was 1.29; in the assay with Ispinesib + Pemetrexed (first compound 0.003162 µM) it was 1.39; with Ispinesib + Pemetrexed (first compound 0.01 µM), 1.02. For the same cell line, the relative viability with Ispinesib + Pemetrexed (first compound 0.03162 µM) was determined as 0.674; in the assay with Ispinesib + Pemetrexed (first compound 0.1 µM), 0.384.
With PC-14, the relative viability with Ispinesib + Navitoclax (first compound 0.001 µM) was 1.13; in the assay with Ispinesib + Navitoclax (first compound 0.003162 µM) it was 1.14; with Ispinesib + Navitoclax (first compound 0.01 µM), 1.22; with Ispinesib + Navitoclax (first compound 0.03162 µM), 0.43; with Ispinesib + Navitoclax (first compound 0.1 µM), 0.104; with Linsitinib + Pictilisib (first compound 0.01 µM), 0.691. Moreover, the relative viability in the assay with Linsitinib + Pictilisib (first compound 0.03162 µM) stood at 0.701; with Linsitinib + Pictilisib (first compound 0.1 µM), 0.75; in the assay with Linsitinib + Pictilisib (first compound 0.3162 µM), 0.598; in the assay with Linsitinib + Pictilisib (first compound 1 µM), 0.5; in the assay with Ispinesib + AZD7762 (first compound 0.001 µM), 0.44; with Ispinesib + AZD7762 (first compound 0.003162 µM), 0.484. Also, the relative viability with Ispinesib + AZD7762 (first compound 0.01 µM) worked out at 0.388; with Ispinesib + AZD7762 (first compound 0.03162 µM), 0.142; with Ispinesib + AZD7762 (first compound 0.1 µM), 0.111; with Ispinesib + Pemetrexed (first compound 0.001 µM), 0.132; in the assay with Ispinesib + Pemetrexed (first compound 0.003162 µM) it was 0.139; with Ispinesib + Pemetrexed (first compound 0.01 µM), 0.0661. Also, the results for the relative viability with Ispinesib + Pemetrexed (first compound 0.03162 µM) and with Ispinesib + Pemetrexed (first compound 0.1 µM) were 0.0425 and 0.0577, respectively.
As to RERF-LC-KJ, the relative viability with Ispinesib + Navitoclax (first compound 0.001 µM) was 1.17; with Ispinesib + Navitoclax (first compound 0.003162 µM) it was 0.997; with Ispinesib + Navitoclax (first compound 0.01 µM) it was 1.01; in the assay with Ispinesib + Navitoclax (first compound 0.03162 µM) it was 0.74; with Ispinesib + Navitoclax (first compound 0.1 µM), 0.369; with Linsitinib + Pictilisib (first compound 0.01 µM), 0.593. Further, the relative viability with Linsitinib + Pictilisib (first compound 0.03162 µM) was determined as 0.55; with Linsitinib + Pictilisib (first compound 0.1 µM), 0.538; with Linsitinib + Pictilisib (first compound 0.3162 µM), 0.44; with Linsitinib + Pictilisib (first compound 1 µM) it was 0.429; with Ispinesib + AZD7762 (first compound 0.001 µM) it was 0.88; in the assay with Ispinesib + AZD7762 (first compound 0.003162 µM) it was 1.1. The relative viability with Ispinesib + AZD7762 (first compound 0.01 µM) turned out to be 1.07; in the assay with Ispinesib + AZD7762 (first compound 0.03162 µM), 0.701; with Ispinesib + AZD7762 (first compound 0.1 µM) it was 0.243; in the assay with Ispinesib + Pemetrexed (first compound 0.001 µM) it was 0.43; with Ispinesib + Pemetrexed (first compound 0.003162 µM), 0.516; with Ispinesib + Pemetrexed (first compound 0.01 µM), 0.443. Also, the relative viability came out at 0.309 with Ispinesib + Pemetrexed (first compound 0.03162 µM) and 0.202 in the assay with Ispinesib + Pemetrexed (first compound 0.1 µM).
